Laboratory results taken from the NIST ThermoML archive (doi:10.1021/je060457+).

What was measured:
[1] = refractive index (Na D-line) (dimensionless); conditions: 101.33 kPa, Liquid, Standard Abbe refractometry
[2] = 101 kPa, Liquid; for viscosity: Capillary tube (Ostwald / Ubbelohde) method; for mass density: Vibrating tube method
[3] = refractive index (Na D-line) (dimensionless); xn = mol fraction of the nth substance listed; conditions: 101 kPa, Liquid, Standard Abbe refractometry, x2 = 0
[4] = xn = mol fraction of the nth substance listed; conditions: 101 kPa, Liquid, x2 = 0; for viscosity: Capillary tube (Ostwald / Ubbelohde) method; for mass density: Vibrating tube method

CNCCO [2-(methylamino)ethanol]
Conditions	mass density, [2] [kg/m3]	refractive index, [1]	viscosity, [2] [mPa·s]
293.15 K	–	1.4393	–
298.15 K	936.18	1.4375	10.51
303.15 K	932.26	1.4356	8.522
308.15 K	–	1.4339	–
313.15 K	924.42	1.4318	5.833
318.15 K	–	1.4298	–
323.15 K	916.48	1.4278	4.177
333.15 K	908.46	–	3.108
343.15 K	900.3	–	2.385

O [water] + CNCCO
Conditions	mass density, [4] [kg/m3]	refractive index, [3]	viscosity, [4] [mPa·s]
293.15 K	–	1.3331	–
298.15 K	–	1.3326	0.8824
303.15 K	–	1.332	0.8047
308.15 K	–	1.3314	–
313.15 K	992.26	1.3307	0.6596
318.15 K	–	1.3299	–
323.15 K	988.05	1.3291	0.5507
333.15 K	983.19	–	0.4703
343.15 K	977.78	–	0.4074
